Results from patent US9822127B2, “GAK modulators as antivirals” (Katholieke Universiteit Leuven, priority 2014, dated 2017).
Values after ≈ are worked out from the molar mass of the structure shown. Like-named read-outs stand apart in the source and are kept apart here.

Assays:
[1] = system: SARS Coronavirus (Virus strain: Urbani); assay: microbe, parasite or virus in culture; assay type: cell-based
HCV RNA replication = HCV RNA replication by luciferase assays; assay type: cell-based; conditions: 72 hours postelectroporation, daily treatment
Huh-7.5 cells [2] = assay: Viability assay, alamarBlue, Huh-7.5 cells; conditions: HCVpp entry experiment
AP2M1 phosphorylation = AP2M1 phosphorylation by Western analysis in Huh-7.5 cells; assay type: cell-based, human; conditions: calyculin A, vs DMSO control
in vitro = conditions: African green monkey
EGFR = EGFR (Homo sapiens, UniProt P00533); assay: Affinity for EGFR / anti-EGFR activity; assay type: binding
Sequence of EGFR (P00533 25-1210): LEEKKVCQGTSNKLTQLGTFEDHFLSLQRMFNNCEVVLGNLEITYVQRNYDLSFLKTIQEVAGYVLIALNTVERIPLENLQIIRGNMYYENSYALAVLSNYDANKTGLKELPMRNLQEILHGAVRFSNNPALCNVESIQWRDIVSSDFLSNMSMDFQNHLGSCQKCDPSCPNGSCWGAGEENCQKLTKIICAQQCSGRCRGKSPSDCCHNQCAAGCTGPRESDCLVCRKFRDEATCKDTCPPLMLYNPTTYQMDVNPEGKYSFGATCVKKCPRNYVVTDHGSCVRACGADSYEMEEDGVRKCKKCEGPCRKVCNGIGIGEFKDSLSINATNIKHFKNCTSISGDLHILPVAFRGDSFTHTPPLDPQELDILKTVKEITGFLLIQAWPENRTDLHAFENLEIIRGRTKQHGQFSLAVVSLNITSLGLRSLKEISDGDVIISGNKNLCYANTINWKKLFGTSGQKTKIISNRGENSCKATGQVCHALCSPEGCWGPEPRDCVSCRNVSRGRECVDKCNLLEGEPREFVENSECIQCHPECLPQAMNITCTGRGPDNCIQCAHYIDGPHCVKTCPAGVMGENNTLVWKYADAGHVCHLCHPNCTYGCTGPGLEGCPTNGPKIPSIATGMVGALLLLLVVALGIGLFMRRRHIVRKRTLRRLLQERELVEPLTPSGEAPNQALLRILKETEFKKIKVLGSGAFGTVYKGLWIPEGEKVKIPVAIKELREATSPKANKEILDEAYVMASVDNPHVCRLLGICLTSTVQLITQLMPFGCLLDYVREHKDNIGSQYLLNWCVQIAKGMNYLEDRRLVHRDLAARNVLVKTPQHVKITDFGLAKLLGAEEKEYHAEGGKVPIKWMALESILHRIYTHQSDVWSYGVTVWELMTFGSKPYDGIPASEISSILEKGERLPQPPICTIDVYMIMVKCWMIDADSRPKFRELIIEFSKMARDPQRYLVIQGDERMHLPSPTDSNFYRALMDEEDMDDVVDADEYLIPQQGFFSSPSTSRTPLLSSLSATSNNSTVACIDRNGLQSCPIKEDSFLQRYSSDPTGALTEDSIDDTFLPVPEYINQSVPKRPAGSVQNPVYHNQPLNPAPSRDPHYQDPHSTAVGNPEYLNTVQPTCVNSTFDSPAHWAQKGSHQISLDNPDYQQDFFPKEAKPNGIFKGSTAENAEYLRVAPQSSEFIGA

Vero76 = conditions: African green monkey
cell culture grown DENV = assay: DENV infection of Huh-7 cells, Renilla luciferase assay; assay type: cell-based; conditions: Dengue virus, Huh-7, 72 h, read-out: EC50, DENV infection
Huh-7 cells = assay: Viability assay, alamarBlue, DENV infected Huh-7 cells; conditions: 72 hours
Huh-7.5 cells [3] = conditions: human
GAK = biological target: T1, GAK (Homo sapiens, UniProt O14976); assay: GAK binding assay (T7 phage kinase competition binding)
T1 construct: made in house; host or cells: T7 phage grown in E. coli host derived from BL21
T1 sequence (O14976 1-1311): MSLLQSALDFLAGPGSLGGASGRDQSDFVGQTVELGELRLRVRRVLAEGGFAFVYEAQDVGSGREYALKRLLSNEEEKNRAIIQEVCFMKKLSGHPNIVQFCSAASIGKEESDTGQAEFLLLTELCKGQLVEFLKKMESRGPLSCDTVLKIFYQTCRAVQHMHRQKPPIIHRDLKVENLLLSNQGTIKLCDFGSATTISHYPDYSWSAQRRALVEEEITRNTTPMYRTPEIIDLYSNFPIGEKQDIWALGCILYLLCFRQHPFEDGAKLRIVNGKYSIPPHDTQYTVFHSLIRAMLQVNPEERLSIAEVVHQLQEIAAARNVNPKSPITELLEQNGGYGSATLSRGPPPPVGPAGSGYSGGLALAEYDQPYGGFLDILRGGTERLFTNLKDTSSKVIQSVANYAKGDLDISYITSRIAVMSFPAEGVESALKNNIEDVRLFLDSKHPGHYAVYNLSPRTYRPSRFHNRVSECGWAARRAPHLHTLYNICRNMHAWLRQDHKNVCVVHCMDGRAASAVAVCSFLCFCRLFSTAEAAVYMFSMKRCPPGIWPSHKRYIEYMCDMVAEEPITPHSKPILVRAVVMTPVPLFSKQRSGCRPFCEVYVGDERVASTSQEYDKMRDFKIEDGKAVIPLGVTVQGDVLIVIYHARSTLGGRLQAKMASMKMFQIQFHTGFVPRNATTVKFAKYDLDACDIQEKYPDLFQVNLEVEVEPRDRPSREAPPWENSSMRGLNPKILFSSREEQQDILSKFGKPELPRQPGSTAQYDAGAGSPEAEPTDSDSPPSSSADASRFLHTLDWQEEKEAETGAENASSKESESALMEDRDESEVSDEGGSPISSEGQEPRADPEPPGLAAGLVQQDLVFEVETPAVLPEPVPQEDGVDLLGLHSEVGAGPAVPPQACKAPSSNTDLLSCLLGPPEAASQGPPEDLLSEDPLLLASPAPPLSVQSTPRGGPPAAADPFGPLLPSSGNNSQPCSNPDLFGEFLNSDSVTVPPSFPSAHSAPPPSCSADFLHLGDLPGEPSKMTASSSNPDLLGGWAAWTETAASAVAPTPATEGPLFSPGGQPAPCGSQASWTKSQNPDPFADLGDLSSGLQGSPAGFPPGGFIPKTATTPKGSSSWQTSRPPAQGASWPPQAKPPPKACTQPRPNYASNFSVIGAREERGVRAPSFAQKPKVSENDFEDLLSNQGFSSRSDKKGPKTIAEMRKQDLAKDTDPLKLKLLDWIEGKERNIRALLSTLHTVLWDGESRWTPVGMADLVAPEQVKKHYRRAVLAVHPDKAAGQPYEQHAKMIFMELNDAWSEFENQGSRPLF

[4] = system: VSV-EB GFP-reporter virus (VSV bearing surface glycoprotein of EBOV); assay type: cell-based, Ebola virus
[5] = Severe acute respiratory syndrome coronavirus, Vero 76

| SMILES | EC50 [1] [µg/mL] | EC50 [1, 5] [µg/mL] | effect on HCV RNA replication (HCV RNA replication) | effect on cellular viability (Huh-7.5 cells [2]) | p-AP2M1 to AP2M1 ratios (AP2M1 phosphorylation) | CC50 (in vitro) [µg/mL] | anti-EGFR activity (EGFR) | CC50 (Vero76) [µg/mL] | EC50 (cell culture grown DENV) [nM] | effect on cellular viability (Huh-7 cells) | CC50 (Huh-7.5 cells [3]) [nM] | Kd (GAK) [nM] | remaining binding at 10 µM (GAK; single concentration of 10 μM, lower numbers indicate stronger hits, read-out: % Ctrl) [%] | effect on VSV-EB infection, treatment alone [4] | % of control binding at 10 µM (GAK; read-out: % Ctrl) [%] |
| --- | --- | --- | --- | --- | --- | --- | --- | --- | --- | --- | --- | --- | --- | --- | --- |
| COc1cc(-c2cnc3c(N4CCOCC4)snc3c2)cc(OC)c1OC [Example 49, 4-(6-(3,4,5-Trimethoxyphenyl)isothiazolo[4,3-b]pyridin-3-yl)morpholine] | 0.77 (≈ 1.99 µM) | 1.2 (≈ 3.1 µM) | did not affect HCV RNA replication | minimal effect on cellular viability | reduced by either 49 or 50 in a dose-dependent manner | 34 (≈ 87.8 µM) | lack anti-EGFR activity | 50 (≈ 129 µM) | 800 | minimal effect on cellular viability | 23300 ± 3400 | 8.3 | 0 |  |  |
| COc1cc(-c2cnc3c(N4CCOCC4)snc3c2)ccc1N [Example 50, 2-Methoxy-4-(3-morpholinoisothiazolo[4,3-]pyridin-6-yl)aniline] | 3.2 (≈ 9.35 µM) | 2.4 (≈ 7.01 µM) | did not affect HCV RNA replication |  |  | 15 (≈ 43.8 µM) | lack anti-EGFR activity | 13 (≈ 38 µM) | 2600 |  |  | 8.9 |  | minimal inhibition of infection | 0 |
